{"source": "paper PMC12284848", "about": "“Safe and Efficient Intracellular Release of SN38 via Lysosomal-Responsive SN38‑G Loaded Liposomes” (ACS Applied Bio Materials, 2025)", "key": {"[1]": {"tested_on": "lung adenocarcinoma (CL1-5)", "set-up": "method as in ref 1 (SI)", "conditions": "CL1-5-inoculated mice, free prodrug; ref 1 (SI); cited from earlier work"}, "[2]": {"tested_on": "MCF-7", "experiment": "Cell proliferation assay (CCK-8), MCF-7", "assay_type": "cell-based, human", "quoted_text": "Cells were seeded at a density of five thousand cells per well in 96-well plates and left to incubate overnight. Triplicate samples of free SN38, free SN38-G, and SN38-G liposomes were added at various dilutions and incubated for 24 h. CCK-8 stock solution was thawed at 37 °C in a water bath, 10 μL was added to each well, and plates were placed in the incubator for up to 4 h before measuring the absorbance at 450 nm using a microplate reader. Inhibition of cell proliferation was determined as 2 ″%ofinhibitioncomparedtocontrol^″=absorbanceat450nm(sample)×100/Absorbanceat450nm(control)\nSequential Esterification, Hydrolysis, Enzymatic Digestion, and Biological Activity Assessment of SN38-G to SN38. Commercial SN38-G was esterified in methanol or ethanol using sulfuric acid (H₂SO₄) and DMSO, following the procedure detailed in the Methods section under Synthesis of amphiphilic SN38-Gmet and SN38-Geth from SN38-G. The formation of the esters was monitored by analytical HPLC. For analysis, 2 µL of the reaction mixture was diluted in 248 µL of HPLC mobile phase, and 2.5 µL was injected with the fluorescence detector set at an excitation/emission wavelength of 375/430 nm. Hydrolysis of SN38-Gmet and SN38-Geth was carried out at 70 °C in 10 mM HEPES buffer, adjusted to pH 8. Samples were taken at 0, 5, 30, and 60 minutes, diluted in HPLC mobile phase (70% methanol, 25 mM citric acid, pH 3), and incubated at 70 °C for 10 minutes before injection. To generate active SN38, SN38-G was enzymatically cleaved by beta-glucuronidase following pH adjustment to 7 with phosphate buffer. The biological activity of the resulting SN38 was evaluated in an in-vitro cytotoxicity assay using human MCF-7 breast cancer cells, in comparison to commercial SN38. Cells were seeded at 5,000 cells per well in 96-well plates and incubated overnight. Triplicate samples of either commercial SN38 or SN38 generated from SN38-G were added at various dilutions and incubated for 24 hours. Afterward, 10 µL of CCK-8 solution (pre-warmed to 37 °C) was added to each well, and the plates were returned to the incubator for up to 4 hours. Absorbance was then measured at 450 nm using a microplate reader. Cell proliferation inhibition was calculated as: % inhibition = [Abs₄₅₀(sample) / Abs₄₅₀(control)] × 100 .\nCytotoxicity Assay in Cancerous and Non -Cancerous Cell Lines. […]\nFor the cytotoxicity assay cells were seeded at a density of 5,000 cells per well in 96 -well plates and allowed to adhere overnight. […] Absorbance at 450 nm was measured using a microplate reader. Cell viability was calculated as a percentage of untreated control cells. […]"}, "[3]": {"tested_on": "MCF-7", "experiment": "Cellular regeneration of SN38 from SN38-G liposomes, MCF-7", "assay_type": "cell-based, human", "conditions": "100 μM inhibitor, 2 μM SN38-G liposomes"}, "[4]": {"tested_on": "MDA-MB-231", "experiment": "Cellular regeneration of SN38 from SN38-G liposomes, MDA-MB-231", "assay_type": "cell-based", "conditions": "100 μM inhibitor, 2 μM SN38-G liposomes"}, "[5]": {"experiment": "physchem", "conditions": "for solubility at 24 h: pH 6, aqueous buffer, thermodynamic from solid, water solubility; for water solubility: 24 h, pH 6", "method": "Water solubility tests were conducted in a pH 6 buffer (Figure b) to prevent the hydrolysis of the ester bond.\n(§1) We added SN38, SN38-G, SN38-G^met, and SN38-G^eth in 10 mM MES pH 6 until it reached saturation and stopped dissolving. Saturated solutions were kept under agitation at room temperature for 24 h and centrifuged at 20,000g for 30 min at 24 °C. Analytical HPLC was then used to quantify the supernatants. The partitioning between 1-octanol and water was determined in 500 μL of 10 mM MES at pH 6 and 500 μL of 1-octanol. […] We allowed equilibration between the 2 phases for 24 h at room temperature under constant shaking. After this, the tubes were centrifuged at 20,000g for 30 min at 24 °C, and samples from each phase were analyzed by analytical HPLC. Using 70% methanol mobile phase conveniently dissolves 1-octanol, ensuring precise estimation of drugs’ quantities."}, "[6]": {"experiment": "physchem", "conditions": "for logP at 24 h: pH 6, Log P", "method": "The log P, defined here by partitioning between 1-octanol and pH 6 buffer (Figure c), was measured to determine compound affinity for organic phases such as the lipid bilayer.\nas §1"}, "[7]": {"tested_on": "MDA-MB-231", "experiment": "Cell proliferation assay (CCK-8), MDA-MB-231", "assay_type": "cell-based", "method": "Cells were seeded at a density of five thousand cells per well in 96-well plates and left to incubate overnight. […] Inhibition of cell proliferation was determined as 2 ''%[…]^''=absorbanceat450nm(sample)×100/Absorbanceat450nm(control)"}, "[8]": {"tested_on": "beta-glucuronidase", "experiment": "Enzymatic digestion of SN38-G to SN38 by beta-glucuronidase", "assay_type": "biochemical", "conditions": "37 °C"}, "[9]": {"experiment": "Drug stability: retention in liposomes on dialysis in 0.9% NaCl with 10% FBS at 37 °C", "assay_type": "physicochemical", "conditions": "dialysis 0.9% NaCl with 10% FBS, over 15 days", "method": "This stability is consistent with the physicochemical properties of SN38-G and its intraliposomal complexation with calcium, which limits membrane permeability.\nWe diluted SN38-G liposomes at 1 mg/mL of phospholipids in 2 mL of 0.9% NaCl, complemented with 10% FBS, before transferring to dialysis membrane (Visking Tubing, diameter 15.9 mm, molecular weight 12,000–14,000). We ran the dialysis at 37 °C in the dark against 2 L, to which we added 0.02% sodium azide to prevent bacterial growth, under constant stirring. Samples of 2 μL of liposomes were taken at different intervals and diluted in 248 μL of HPLC mobile phase (70% methanol, […], pH 3), lysed for 10 min at 70 °C, and injected (Volume = 2.5 μL) in the C18 reverse phase HPLC system to analyze the total remaining amount of encapsulated SN38-G."}, "[10]": {"experiment": "Alkaline hydrolysis of SN38-G esters back to SN38-G (10 mM HEPES pH 8, 70 °C, HPLC)", "assay_type": "physicochemical", "conditions": "alkaline conditions (10 mM HEPES pH 8), after 1 h", "method": "Accordingly, we formed a loadable amphiphilic SN38-G by esterification in excess alcohol at elevated temperatures using a sulfuric acid (H2SO4) catalyst. Esterification was performed in either methanol or ethanol, resulting in a methylester (SN38-G^met) and an ethylester (SN38-G^eth). Within 12 h, over 95% of SN38-G was esterified to SN38-G^met and SN38-G^eth (Figure a). Both esters are expected to have different levels of amphiphilicity due to their respective ester length, which might influence their loading behavior. We then tested the reversibility of the esterification to regenerate hydrophilic SN38-G through alkaline hydrolysis, which is a crucial step to ensure proper retention after loading. The hydrolysis rates of SN38-G^met and SN38-G^eth under alkaline conditions at 70 °C, which simulates the elevated pH compartment of liposomes during loading, were adequate. After 1 h, 96.1% (±2.6) of SN38-G^met and 95.5% (±2.1) of SN38-G^eth were hydrolyzed back to SN38-G (Figure b). The hydrolysis duration aligns with the typical incubation time between drugs and liposomes during loading. […]\nHydrolysis of SN38-G^met and SN38-G^eth was performed in 10 mM HEPES adjusted to pH 8 to simulate the alkaline internal compartment of the liposomes during drug loading. We monitored the reaction at 70 °C and took samples at 0, 5, 30, and 60 min of incubation time. […]"}, "[11]": {"tested_on": "ovarian cancer model (OVCAR-3)", "set-up": "method as in ref 7 (SI)", "conditions": "equitoxic dose; ref 7 (SI); cited from earlier work"}}}
{"compound": "9-aminocamptothecin glucuronide [9AC glucuronide]", "values": [{"measurement": "mice cured", "setting": "[1]", "value": "Up to 85%"}]}
{"compound": "CCc1c2c(nc3ccc(OC(=O)N4CCC(N5CCCCC5)CC4)cc13)-c1cc3c(c(=O)n1C2)COC(=O)[C@]3(O)CC", "note": "[CPT-11]", "values": [{"measurement": "cytotoxicity", "setting": "[2]; MCF-7, 24 h, CCK-8", "value": "low cytotoxicity"}]}
{"compound": "O=C(O)[C@@H](O)[C@H]1OC(=O)[C@H](O)[C@H]1O", "note": "[D-saccharic acid 1,4-lactone]", "values": [{"measurement": "effect on production of SN38 in cells", "setting": "[3]", "value": "effectively suppressed"}, {"measurement": "effect on production of SN38 in cells", "setting": "[4]", "value": "effectively suppressed"}]}
{"compound": "CCc1c2c(nc3ccc(O)cc13)-c1cc3c(c(=O)n1C2)COC(=O)[C@]3(O)CC", "note": "[SN38, 7-ethyl-10-hydroxycamptothecin]", "values": [{"measurement": "solubility at 24 h", "setting": "[5]", "value": "~7.45", "unit": "µg/mL"}, {"measurement": "higher affinity for the organic phase", "setting": "[6]; 1-octanol vs pH 6 buffer", "value": 53, "unit": "fold"}, {"measurement": "logP at 24 h", "setting": "[6]", "value": 1.73}, {"measurement": "IC50", "setting": "[2]; Homo sapiens, MCF7, MCF-7, 24 h, CCK-8", "value": 5.82, "unit": "nM"}, {"measurement": "in vitro cytotoxicity of SN38 regenerated from reformed SN38-G", "setting": "[2]; SN38 made by esterification, hydrolysis and beta-glucuronidase digestion of SN38-G, MCF-7, 24 h", "value": "comparable to that of a commercial SN38 standard"}, {"measurement": "IC50", "setting": "[7]; Homo sapiens, MDA-MB-231, 24 h, CCK-8", "value": 24, "unit": "nM"}]}
{"compound": "CCc1c2c(nc3ccc(O[C@@H]4O[C@H](C(=O)O)[C@@H](O)[C@H](O)[C@H]4O)cc13)-c1cc3c(c(=O)n1C2)COC(=O)[C@]3(O)CC", "note": "[SN38-G, SN38 glucuronide]", "values": [{"measurement": "cleavage by beta-glucuronidase to SN38", "setting": "[8]", "value": "rapidly cleaved"}, {"measurement": "water solubility", "setting": "[5]", "value": 62800, "unit": "µg/mL"}, {"measurement": "solubility at 24 h", "setting": "[5]", "value": "~59500", "unit": "µg/mL"}, {"measurement": "higher affinities for the aqueous phase", "setting": "[6]; 1-octanol vs pH 6 buffer", "value": "over 775 fold"}, {"measurement": "logP at 24 h", "setting": "[6]", "value": -2.89}, {"measurement": "retention within liposomes", "setting": "[9]", "value": "excellent retention"}, {"measurement": "reduction of toxicity versus SN38", "setting": "[2]; MCF-7", "value": 728.5, "unit": "fold"}, {"measurement": "reduction of toxicity versus SN38", "setting": "[7]; MDA-MB-231", "value": 550.5, "unit": "fold"}]}
{"compound": "CCOC(=O)[C@H]1O[C@@H](Oc2ccc3nc4c(c(CC)c3c2)Cn2c-4cc3c(c2=O)COC(=O)[C@]3(O)CC)[C@H](O)[C@@H](O)[C@@H]1O", "note": "[SN38-G^eth]", "values": [{"measurement": "hydrolyzed back to SN38-G", "setting": "[10]", "value": 95.5, "unit": "%"}, {"measurement": "water solubility", "setting": "[5]", "value": 1500, "unit": "µg/mL"}, {"measurement": "solubility at 24 h", "setting": "[5]", "value": "~1500", "unit": "µg/mL"}, {"measurement": "logP at 24 h", "setting": "[6]", "value": 0.66}, {"measurement": "retention within liposomes", "setting": "[9]", "value": "rapid clearance"}]}
{"compound": "CCc1c2c(nc3ccc(O[C@@H]4O[C@H](C(=O)OC)[C@@H](O)[C@H](O)[C@H]4O)cc13)-c1cc3c(c(=O)n1C2)COC(=O)[C@]3(O)CC", "note": "[SN38-G^met]", "values": [{"measurement": "hydrolyzed back to SN38-G", "setting": "[10]", "value": 96.1, "unit": "%"}, {"measurement": "water solubility", "setting": "[5]", "value": 3860, "unit": "µg/mL"}, {"measurement": "solubility at 24 h", "setting": "[5]", "value": "~3860", "unit": "µg/mL"}, {"measurement": "logP at 24 h", "setting": "[6]", "value": 0.07}, {"measurement": "retention within liposomes", "setting": "[9]", "value": "rapid clearance"}]}
{"compound": "COc1cccc2c1C(=O)c1c(O)c3c(c(O)c1C2=O)C[C@@](O)(C(=O)CO)C[C@@H]3O[C@H]1C[C@H](N)[C@H](O)[C@H](C)O1", "note": "[doxorubicin]", "values": [{"measurement": "tumor inhibition", "setting": "[11]", "value": 56, "unit": "%"}]}
